In patent US6518243B1, “Desleucyl glycopeptide antibiotics and methods of making same” (Trustees of Princeton University, priority 1999, dated 2003):

Assays:
[1] = tested on: S. epidermidis (ATCC 12228); experiment: Zone of inhibition screen, 96 well agar array format; assay type: cell-based; parameters: scale not given here
Method in brief: (§1)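 Read-out is antibacterial activity on agar laid out as a 96-well array; every compound went through all strains of the panel.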

S. aureus (ATCC 29213) = experiment: as above; assay type: cell-based; parameters: scale not given here
Method in brief: as §1

E. faceium (ATCC 49624) = experiment: as above; assay type: cell-based, E. faecium;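 further: score 3 means fourfold and score 4 sixteenfold the reference zone size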
Experimental: The antibacterial activity of each of the compounds against the bacterial strains E. faceium (ATCC 49624), S. epidermidis (ATCC 12228), S. aureus (ATCC 29213), E. faecalis (CL 4877) and E. faecalis (ATCC 292121) was tested. Each of the compounds was screened in a 96 will agar array format.

E. faecalis (CL 4877) = experiment: as above; assay type: cell-based; parameters: scale not given here
Method in brief: as §1

E. faecium ATCC 49624 = experiment: MIC determination in BHI media, OD600; assay type: cell-based; details: BHI + 0.1% casamino acids, 18 hours at 37° C., ≧90% OD600 inhibition
Experimental: (§2) Logarithmically growing cells were diluted to approximately 5×10^5 CFU/ml and subjected to test compounds solubilized and serially diluted in DMSO. […] After 18 hours at 37° C., the OD600 was determined by reading the ninety-six well microtiter plates on a microplate reader. For a given concentration, an MIC determination was made if: […]

E. faecium CL 4931 = experiment: MIC determination in BHI media, OD600; assay type: cell-based; details: BHI + 0.1% casamino acids, 18 hours at 37° C., ≧90% OD600 inhibition
Experimental: as §2

S. Aureus ATCC 33591 = experiment: MIC determination in BHI media, OD600; assay type: cell-based; details: BHI + 0.1% casamino acids, 18 hours at 37° C., ≧90% OD600 inhibition
Experimental: as §2

[2] = zone of inhibition relative to 1 mg/ml stock solution of p-chlorobiphenylvancomycin
[3] = zone of inhibition relative to 1 mg/ml p-chlorobiphenylvancomycin

| SMILES | zone score, S. epidermidis ATCC 12228 [1, 2] | zone score, S. aureus ATCC 29213 (S. aureus (ATCC 29213); [2]) | zone score, E. faecium ATCC 49624 (E. faceium (ATCC 49624); [2]) | MIC E. faecium ATCC 49624 (E. faecium ATCC 49624) | MIC E. faecium CL 4931 (E. faecium CL 4931) | zone score, S. epidermidis ATCC 12228 [1, 3] | further results |
| --- | --- | --- | --- | --- | --- | --- | --- |
| CC(=O)NCSC(C)(C)C(N)C(=O)NC1C(=O)NC(CC(N)=O)C(=O)NC2C(=O)NC3C(=O)NC(C(=O)NC(C(=O)O)c4cc(O)cc(O)c4-c4cc3ccc4O)C(O)c3ccc(c(Cl)c3)Oc3cc2cc(c3OC2OC(CO)C(O)C(O)C2OC2CC(C)(NCc3ccc(-c4ccc(Cl)cc4)cc3)C(O)C(C)O2)Oc2ccc(cc2Cl)C1O (stereo not shown) [Compound 84] | 2 | 2 | 2 | – | – | – | – |
| CC1OC(OC2C(Oc3c4cc5cc3Oc3ccc(cc3Cl)C(O)C3NC(=O)C(NC(=O)C5NC(=O)C(CC(N)=O)NC(=O)C(NC(=O)CNC(=O)C5CCCN5)C(O)c5ccc(c(Cl)c5)O4)c4ccc(O)c(c4)-c4c(O)cc(O)cc4C(C(=O)O)NC3=O)OC(CO)C(O)C2O)CC(C)(NCc2ccc(-c3ccc(Cl)cc3)cc2)C1O (stereo not shown) [Compound 85] | 2 | 2 | 2 | – | – | – | zone score, E. faecalis CL 4877 (E. faecalis (CL 4877); [2]): 2 |
| CC1OC(OC2C(Oc3c4cc5cc3Oc3ccc(cc3Cl)C(O)C3NC(=O)C(NC(=O)C5NC(=O)C(CC(N)=O)NC(=O)C(NC(=O)C(CC(N)=O)NC(=O)OC(C)(C)C)C(O)c5ccc(c(Cl)c5)O4)c4ccc(O)c(c4)-c4c(O)cc(O)cc4C(C(=O)O)NC3=O)OC(CO)C(O)C2O)CC(C)(NCc2ccc(-c3ccc(Cl)cc3)cc2)C1O (stereo not shown) [Compound 135] | 2 | 2 | – | 0.39 µg/mL | > 25 µg/mL | – | – |
| CC1OC(OC2C(Oc3c4cc5cc3Oc3ccc(cc3Cl)C(O)C3NC(=O)C(NC(=O)C5NC(=O)C(CC(N)=O)NC(=O)C(NC(=O)C(CC[S+](C)[O-])NC(=O)OC(C)(C)C)C(O)c5ccc(c(Cl)c5)O4)c4ccc(O)c(c4)-c4c(O)cc(O)cc4C(C(=O)O)NC3=O)OC(CO)C(O)C2O)CC(C)(NCc2ccc(-c3ccc(Cl)cc3)cc2)C1O (stereo not shown) [Compound 142] | – | 2 | 2 | – | – | – | zone score, E. faecalis CL 4877 (E. faecalis (CL 4877); [2]): 2 |
| CC(=O)c1ccc(C(=O)NC2C(=O)NC(CC(N)=O)C(=O)NC3C(=O)NC4C(=O)NC(C(=O)NC(C(=O)O)c5cc(O)cc(O)c5-c5cc4ccc5O)C(O)c4ccc(c(Cl)c4)Oc4cc3cc(c4OC3OC(CO)C(O)C(O)C3OC3CC(C)(NCc4ccc(-c5ccc(Cl)cc5)cc4)C(O)C(C)O3)Oc3ccc(cc3Cl)C2O)cc1 (stereo not shown) [Compound 267] | – | – | – | – | – | 2 | zone score, E. faecium ATCC 49624 (E. faceium (ATCC 49624); [3]): 2 |
| CCOCC(=O)NC1C(=O)NC(CC(N)=O)C(=O)NC2C(=O)NC3C(=O)NC(C(=O)NC(C(=O)O)c4cc(O)cc(O)c4-c4cc3ccc4O)C(O)c3ccc(c(Cl)c3)Oc3cc2cc(c3OC2OC(CO)C(O)C(O)C2OC2CC(C)(NCc3ccc(-c4ccc(Cl)cc4)cc3)C(O)C(C)O2)Oc2ccc(cc2Cl)C1O (stereo not shown) [Compound 287] | – | – | – | – | 25 µg/mL | 2 | zone score, E. faecalis CL 4877 (E. faecalis (CL 4877); [3]): 2; zone score, S. aureus ATCC 29213 (S. aureus (ATCC 29213); [3]): 2 |
| COCC(=O)NC1C(=O)NC(CC(N)=O)C(=O)NC2C(=O)NC3C(=O)NC(C(=O)NC(C(=O)O)c4cc(O)cc(O)c4-c4cc3ccc4O)C(O)c3ccc(c(Cl)c3)Oc3cc2cc(c3OC2OC(CO)C(O)C(O)C2OC2CC(C)(NCc3ccc(-c4ccc(Cl)cc4)cc3)C(O)C(C)O2)Oc2ccc(cc2Cl)C1O (stereo not shown) [Compound 303] | – | – | – | – | 25 µg/mL | 2 | – |
| CC1OC(OC2C(Oc3c4cc5cc3Oc3ccc(cc3Cl)C(O)C3NC(=O)C(NC(=O)C5NC(=O)C(CC(N)=O)NC(=O)C(NC(=O)C(N)CSCc5ccccc5)C(O)c5ccc(c(Cl)c5)O4)c4ccc(O)c(c4)-c4c(O)cc(O)cc4C(C(=O)O)NC3=O)OC(CO)C(O)C2O)CC(C)(NCc2ccc(-c3ccc(Cl)cc3)cc2)C1O (stereo not shown) [Compound 332] | – | – | – | – | 25 µg/mL | – | – |
| CNC(COC(C)(C)C)C(=O)NC1C(=O)NC(CC(N)=O)C(=O)NC2C(=O)NC3C(=O)NC(C(=O)NC(C(=O)O)c4cc(O)cc(O)c4-c4cc3ccc4O)C(O)c3ccc(c(Cl)c3)Oc3cc2cc(c3OC2OC(CO)C(O)C(O)C2OC2CC(C)(NCc3ccc(-c4ccc(Cl)cc4)cc3)C(O)C(C)O2)Oc2ccc(cc2Cl)C1O (stereo not shown) [Compound 343] | – | – | – | 0.39 µg/mL | 25 µg/mL | – | MIC S. aureus ATCC 33591 (S. Aureus ATCC 33591): 0.78 µg/mL |
| CC(OC(C)(C)C)C(N)C(=O)NC1C(=O)NC(CC(N)=O)C(=O)NC2C(=O)NC3C(=O)NC(C(=O)NC(C(=O)O)c4cc(O)cc(O)c4-c4cc3ccc4O)C(O)c3ccc(c(Cl)c3)Oc3cc2cc(c3OC2OC(CO)C(O)C(O)C2OC2CC(C)(NCc3ccc(-c4ccc(Cl)cc4)cc3)C(O)C(C)O2)Oc2ccc(cc2Cl)C1O (stereo not shown) [Compound 344] | – | – | – | 0.78 µg/mL | 25 µg/mL | – | – |
